In one test the test system is FRDA lymphocytes. The test is described as follows: Suppression of ROS production (DCFH-DA flow cytometry) in DEM-treated FRDA lymphocytes. It counts as cell-based. The note with it: FRDA lymphocytes or leukemic CEM cells depleted of glutathione with DEM; compared with natural product 8. The protocol:
FIG. 2. Representative flow cytometric analysis of ROS production in FRDA lymphocytes. Following pretreatment with the indicated compounds (5 and 10 μM) for 16 h, the cells were treated with 5 mM diethyl maleate (DEM) for 80 min to deplete glutathione. The cells were washed in phosphate-buffered saline and suspended in phosphate-buffered saline containing 20 mM glucose. Cells were loaded with 10 μM dichlorodihydrofluorescein diacetate (DCFH-DA) for 20 min, and the green fluorescence (DCF) was measured by flow cytometry (C6 Accuri, BD Biosciences, San Jose, Calif.), using a 488 nm excitation laser and the FL1-H channel 530±15 nm emission filter. […] A total of 10,000 events was recorded for each sample and analyzed (C6 Accuri software, BD Biosciences). […] Data are expressed as the mean±SEM (n=3).
Intracellular ROS production was measured in FRDA lymphocyte cells (GM15850, Coriell Cell Repositories, Camden, N.J.) using the oxidant sensitive fluorescent probe 2,7-dichlorodihydrofluorescein diacetate (DCFH-DA) (Molecular Probes) as described previously (Khdour et al. (2011) Pharm. Res. 28, 2896-2909). […] The samples were analyzed immediately by flow cytometry (C6 Accuri, BD Biosciences, San Jose, Calif.), using a 488 nm excitation laser and the FL1-H channel 530±15 nm emission filter. The generation of ROS, mainly peroxides, was detected as a result of the oxidation of DCFH. […]

A further test relates to Hsp90. The test is described as follows: Hsp90 client protein immunodetection assay (Her2 degradation, Hsp70 induction) in BT474 cells. It counts as cell-based, human. The following applies: 24 h. The protocol:
FIG. 9. A cell-based immunodetection assay was used to monitor Hsp90 client protein, Her2 protein degradation (A), and the induction of a heat shock response Hsp70 protein levels (B) in Her2-overexpressing BT474 cell line. The effects of 40 and geldanamycin were compared to vehicle (DMSO) after treatment with varying concentrations of the compounds for 24 h. Each measurement is an average of three independent experiments run in […].
The classic method of following the cellular activity of Hsp90 inhibitors is through the proteasome-dependent degradation of Hsp90 client proteins. […] Another hallmark of Hsp90 inhibition is the induction of a heat shock response, which was evaluated by determining the Hsp70 protein levels by […]. […] The plates were read immediately on a luminometer (Clarity™ luminescence microplate reader). Readings from wells containing only control IgG and the corresponding horseradish peroxidase-linked secondary antibody were set as background and subtracted from all measured values. The average chemiluminescence signals obtained were expressed as a percentage of Her2 reduction or Hsp70 induction in comparison to vehicle (DMSO). Values were calculated from three independent experiments performed in triplicate.

In the case of `CCCCCCCCCCCCCC1=C(OC)C(=O)C=C(NCCCC(=O)OC(C)(C)C)C1=O` [Compound 7, tert-butyl 4-(4-methoxy-3,6-dioxo-5-tridecylcyclohexa-1,4-dienylamino)butanoate], in the test on FRDA lymphocytes, the “Suppression of ROS (in words)” value is listed as “very effective in suppressing ROS”.

For `COC1=C2CCCCCCCCCCCCCCCNC(=CC1=O)C2=O` [Compound 40], in the test on Hsp90, the “Hsp90 inhibition judged by client proteins Her2 and Hsp70 (in words)” value is recorded as “did not inhibit Hsp90”. Further, the “Suppression of ROS (in words)” value in the test on FRDA lymphocytes is “very effective in suppressing ROS”.
